{"source": "patent US20240269303A1", "about": "“CELL TARGETING CONSTRUCTS AND USES THEREOF” (Research Development Foundation, priority 2022, published 2024)", "key": {"OVCAR8/LGR5 cells": {"test_system": "OVCAR8/LGR5 cells", "test": "Growth rate inhibition assay (CCK8, 120 h exposure)", "assay_type": "cell-based, human"}, "OVCAR8/EV cells": {"test_system": "OVCAR8/EV cells", "test": "Growth rate inhibition assay (CCK8, 120 h exposure)", "assay_type": "cell-based, human", "conditions": "OVCAR8/EV (LGR5-poor) cells"}, "HEK293/LGR5 cells": {"test_system": "HEK293/LGR5 cells", "test": "Growth rate inhibition assay (CCK8, 120 h exposure)", "assay_type": "cell-based, human"}, "LGR6": {"biological_target": "T1, LGR6 (Homo sapiens, UniProt Q9HBX8)", "T1 sequence (Q9HBX8 25-967)": "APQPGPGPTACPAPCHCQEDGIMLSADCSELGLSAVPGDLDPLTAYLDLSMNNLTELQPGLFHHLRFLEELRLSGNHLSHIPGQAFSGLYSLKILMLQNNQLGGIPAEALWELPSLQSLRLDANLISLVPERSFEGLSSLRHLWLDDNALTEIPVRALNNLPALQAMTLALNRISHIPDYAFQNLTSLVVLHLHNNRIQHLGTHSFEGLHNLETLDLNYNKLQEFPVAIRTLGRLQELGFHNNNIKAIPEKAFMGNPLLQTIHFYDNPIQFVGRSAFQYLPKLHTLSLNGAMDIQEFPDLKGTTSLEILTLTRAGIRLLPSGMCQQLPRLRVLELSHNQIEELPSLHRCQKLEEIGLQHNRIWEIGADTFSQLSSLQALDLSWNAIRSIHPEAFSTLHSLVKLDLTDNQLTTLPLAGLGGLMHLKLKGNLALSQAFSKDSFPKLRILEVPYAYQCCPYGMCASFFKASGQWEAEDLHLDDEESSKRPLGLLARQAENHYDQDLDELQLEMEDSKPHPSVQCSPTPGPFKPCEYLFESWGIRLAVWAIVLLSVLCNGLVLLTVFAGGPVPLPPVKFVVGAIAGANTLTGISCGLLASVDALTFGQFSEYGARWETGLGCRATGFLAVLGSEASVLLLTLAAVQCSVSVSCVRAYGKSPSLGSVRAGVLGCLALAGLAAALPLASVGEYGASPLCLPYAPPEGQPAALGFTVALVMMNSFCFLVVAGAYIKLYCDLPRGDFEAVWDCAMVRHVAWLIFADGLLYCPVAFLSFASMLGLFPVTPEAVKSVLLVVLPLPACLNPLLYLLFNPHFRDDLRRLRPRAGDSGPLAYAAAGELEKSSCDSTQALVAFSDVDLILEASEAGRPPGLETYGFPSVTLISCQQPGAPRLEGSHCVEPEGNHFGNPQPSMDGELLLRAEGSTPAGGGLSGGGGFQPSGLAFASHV", "conditions": "read-out: affinity; cited from earlier work"}, "LGR5": {"biological_target": "T2, LGR5 (Homo sapiens, UniProt O75473)", "T2 sequence (O75473 22-907)": "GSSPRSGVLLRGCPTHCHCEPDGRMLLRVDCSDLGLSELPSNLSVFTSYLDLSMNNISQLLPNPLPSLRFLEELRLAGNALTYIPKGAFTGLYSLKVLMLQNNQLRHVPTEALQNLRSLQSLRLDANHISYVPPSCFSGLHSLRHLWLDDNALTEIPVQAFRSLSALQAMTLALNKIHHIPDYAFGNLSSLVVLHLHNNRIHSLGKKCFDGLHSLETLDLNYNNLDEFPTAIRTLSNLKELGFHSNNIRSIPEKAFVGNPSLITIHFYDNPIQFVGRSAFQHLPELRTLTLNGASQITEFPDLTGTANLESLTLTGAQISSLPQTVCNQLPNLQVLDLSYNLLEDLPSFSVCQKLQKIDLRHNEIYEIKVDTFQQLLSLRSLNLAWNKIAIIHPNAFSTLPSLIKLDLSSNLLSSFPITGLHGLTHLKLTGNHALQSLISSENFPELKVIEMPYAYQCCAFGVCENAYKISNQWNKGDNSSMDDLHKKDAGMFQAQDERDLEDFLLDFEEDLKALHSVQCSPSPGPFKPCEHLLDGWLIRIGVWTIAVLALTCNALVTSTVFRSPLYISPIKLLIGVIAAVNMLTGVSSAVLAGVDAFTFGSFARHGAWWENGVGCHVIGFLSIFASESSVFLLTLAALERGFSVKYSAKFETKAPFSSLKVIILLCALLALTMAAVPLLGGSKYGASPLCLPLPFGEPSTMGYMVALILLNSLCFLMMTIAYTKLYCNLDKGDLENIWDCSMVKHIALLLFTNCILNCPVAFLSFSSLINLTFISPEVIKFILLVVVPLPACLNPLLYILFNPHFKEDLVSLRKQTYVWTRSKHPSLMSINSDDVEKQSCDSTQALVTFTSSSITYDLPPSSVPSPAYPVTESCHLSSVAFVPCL", "conditions": "read-out: affinity; cited from earlier work"}}, "note": "Square brackets hold non-standard residues; d marks the D form. Peptide text beside a SMILES is read from it. * marks the point of attachment. Dolaproine = CO[C@@H]([C@@H]1CCCN1)[C@@H](C)C(=O)O; Dil = CC[C@H](C)[C@H](NC)[C@@H](CC(=O)O)OC; X1 = C[C@@H](N*)[C@@H](O)c1ccccc1; NMeV = CN[C@H](C(=O)O)C(C)C", "data": [{"molecule": "CC[C@H](C)[C@@H]([C@@H](CC(=O)N1CCC[C@H]1[C@H](OC)[C@@H](C)C(=O)N[C@H](C)[C@@H](O)c1ccccc1)OC)N(C)C(=O)[C@@H](NC(=O)[C@@H](NC)C(C)C)C(C)C", "note": "[free MMAE, Monomethyl auristatin E, reference compound] (H-[NMeV]V[Dil][Dolaproine]-X1)", "values": [{"measurement": "OVCAR8/LGR5 cells more resistant than OVCAR8/EV cells", "setting": "OVCAR8/LGR5 cells", "value": 1.5, "unit": "fold"}, {"measurement": "IC50", "setting": "OVCAR8/LGR5 cells; OVCAR8/LGR5 (LGR5-rich) cells, 120 h exposure, CCK8", "value": 129, "unit": "nM"}, {"measurement": "IC50", "setting": "OVCAR8/EV cells", "value": 85, "unit": "nM"}, {"measurement": "HEK293/LGR5 cells more resistant than HEK293/EV cells", "setting": "HEK293/LGR5 cells", "value": 1.6, "unit": "fold"}]}, {"molecule": "Fu1-Fu2 domain of RSPO1: receptor-binding Fu1-Fu2 domain of human RSPO1", "values": [{"measurement": "Kd", "setting": "LGR6", "value": "~3", "unit": "nM"}, {"measurement": "Kd", "setting": "LGR5", "value": "~3", "unit": "nM"}]}]}
